Laboratory results published in article PMC3855619 (Biochemistry, 2013).

Target: GI 77862362; decaprenyl diphosphate synthase [Rhodobacter capsulatus] (Rhodobacter capsulatus, UniProt Q07D00)
Test: product chain-length by TLC with […]IPP
Type: biochemical

Chain of GI 77862362; decaprenyl diphosphate synthase [Rhodobacter capsulatus] (Q07D00 1-333): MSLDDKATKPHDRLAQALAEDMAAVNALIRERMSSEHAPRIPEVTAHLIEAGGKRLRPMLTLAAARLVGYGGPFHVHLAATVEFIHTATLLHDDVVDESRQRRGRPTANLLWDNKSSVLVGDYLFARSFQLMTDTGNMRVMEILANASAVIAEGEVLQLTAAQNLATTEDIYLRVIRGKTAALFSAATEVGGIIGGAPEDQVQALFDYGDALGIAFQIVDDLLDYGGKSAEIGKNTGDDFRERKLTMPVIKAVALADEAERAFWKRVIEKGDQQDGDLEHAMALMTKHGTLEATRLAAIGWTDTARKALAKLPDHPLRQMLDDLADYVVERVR

## C=C(C)CCOP(=O)(O)OP(=O)(O)O [IPP]
  product chain-length by TLC with [14C]IPP: different ratios of IPP:DMAPP and IPP:FPP
